IC50 and inhibition data for ten compounds are collected here from ChEMBL document CHEMBL1139256, “Identification of pharmacophore model, synthesis and biological evaluation of N-phenyl-1-arylamide and N-phenylbenzenesulfonamide derivatives as BACE 1 inhibitors” (Bioorg Med Chem, 2008).

In general, IC50 refers to the concentration at which inhibition is half-maximal. The inhibition is the drop in the measured response relative to a control, in per cent.

Molecules are shown by their SMILES. *1 amine or outer side, *2 acyl side, *3 side chain or, on linkers, in order; H or OH if unused. Where a SMILES comes first, the peptide text is derived from it. [ ]: non-standard residue; d: D form. LeuΨ(S-CHOHCH2)Ala = CC(C)C[C@H](N[*:1])[C@@H](O)C[C@@H](C)C(=O)[*:2]

For the first test, the target named is T1, Beta-secretase 1 (Homo sapiens, UniProt P56817). The test can be described thus: Inhibition of BACE1 by FRET assay.
T1 sequence (P56817 whole entry): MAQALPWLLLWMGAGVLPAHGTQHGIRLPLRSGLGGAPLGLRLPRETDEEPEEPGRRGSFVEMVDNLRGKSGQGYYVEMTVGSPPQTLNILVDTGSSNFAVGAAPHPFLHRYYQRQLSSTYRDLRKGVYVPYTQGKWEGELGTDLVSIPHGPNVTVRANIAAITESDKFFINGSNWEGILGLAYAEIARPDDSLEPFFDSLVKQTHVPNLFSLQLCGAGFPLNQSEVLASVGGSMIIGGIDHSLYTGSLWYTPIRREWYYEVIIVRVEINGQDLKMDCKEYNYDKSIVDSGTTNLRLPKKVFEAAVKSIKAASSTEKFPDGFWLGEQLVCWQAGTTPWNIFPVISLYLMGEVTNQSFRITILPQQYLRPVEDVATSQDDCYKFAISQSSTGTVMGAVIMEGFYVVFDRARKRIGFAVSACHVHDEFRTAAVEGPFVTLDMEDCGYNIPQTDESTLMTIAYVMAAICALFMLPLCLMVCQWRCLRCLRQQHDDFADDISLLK
Details: not given
As for `O=C(Cc1cccc2ccccc12)Nc1cc(Br)ccc1OCCNC1CCCCC1`, the IC50 was found to be 47.1 µM.

In turn, `NCCCCCCNCCOc1ccc(Br)cc1NC(=O)Cc1cccc2ccccc12` returned a concentration for half-maximal inhibition (IC50) of 18.3 µM. This IC50 lies about 2.6-fold lower than the previous one.

The target of a further test is T1, Beta-secretase 1. The settings on record: 2 ug/ml.
Description: Inhibition of BACE1 at 2 ug/ml by FRET assay
In the case of `CC(C)C[C@H](NC(=O)[C@H](CC(N)=O)NC(=O)[C@@H](NC(=O)[C@@H](N)CCC(=O)O)C(C)C)[C@@H](O)C[C@@H](C)C(=O)N[C@@H](C)C(=O)N[C@@H](CCC(=O)O)C(=O)N[C@@H](Cc1ccccc1)C(=O)O` (H-EVN[LeuΨ(S-CHOHCH2)Ala]AEF-OH), the inhibition turned out to be 102%.

The next test deals with T1, Beta-secretase 1. The test can be described thus: Inhibition of BACE1 at 20 ug/ml by FRET assay.
Details: not given
With `CCOC(=O)CN(C)CCOc1ccc(Br)cc1NC(=O)Cc1cccc2ccccc12`, the inhibition is 24.7%.

In the case of `O=C(CCc1ccccc1)Nc1cc(Br)ccc1OCCN1CCOCC1`, the inhibition came to 13.8%.

Take `O=C(Cc1cccc2ccccc12)Nc1cc(Br)ccc1OCCNC1CCCCC1`: the inhibition was 64.5%.

Consider `CN(CCOc1ccc(Br)cc1NC(=O)Cc1cccc2ccccc12)Cc1ccccc1`, for which the inhibition amounted to 41.8%.

Consider `O=S(=O)(Nc1cc(Br)ccc1OCCN1CCOCC1)c1ccc(Br)cc1`, for which the inhibition is 14.3%.

Turning to `O=C(Cc1cccc2ccccc12)Nc1cc(Br)ccc1OCCN1CCOCC1`, the inhibition stood at 39.4%.

For `NCCCCCCNCCOc1ccc(Br)cc1NC(=O)Cc1cccc2ccccc12`, the inhibition is 83.7%.

As for `CCOC(=O)C1CCN(CCOc2ccc(Br)cc2NC(=O)Cc2cccc3ccccc23)CC1`, the inhibition was 34.8%.

For `O=C(Cc1cccc2ccccc12)Nc1cc(Br)ccc1OCCNCCCO`, the inhibition was 15.1%.
